Patent US20040009197A1 (priority 2000, published 2004)
“And” between values parts separate entries of the source, which are not always exact repeats. Equal entries are not always repeated. Where two headings read alike, the source gives them in different places.

Test: UV spectrum: absorption maxima, molar extinction coefficient and K value
Format: physicochemical
Conditions: for εM: in M-1·cm-1 (unit assumed); for UV absorption peaks: does not depend on the solvent nature and pH values

With `CCCCC(CC)COC(=O)c1ccc(N(C)C)cc1` (stereo not shown) [Octyl dimethyl PABA, 2-ethylbexyl p-dimethylaminobenzoate] the Max ads. (Solvent system Ethanol) was 311.
For `Nc1ccc(C(=O)OCC(O)CO)cc1` (stereo not shown) [Glyceryl PABA, 1,2,3-propanetriol,], the Max ads. (Solvent system Ethanol) was 297.
For `CCCCC(CC)COC(=O)c1ccccc1O` (stereo not shown) [Octyl salicylate, 2-ethylhexyl salicylate], the Max ads. (Solvent system Ethanol) was 307.
In the case of `CCCCC(CC)COC(=O)C=Cc1ccc(OC)cc1` (stereo not shown) [Octyl methoxycinnamate, 2-ethylhexyl-p-methoxycinnamate], the Max ads. (Solvent system Ethanol) was 311.
In the case of `Cc1ccc(C=C2C(=O)C3(C)CCC2C3(C)C)cc1` (stereo not shown) [3-(4-methylbenzylidene)-camphor, 3-(4-methylbenzylidene)-bornan-2-one], the Max ads. (Solvent system Ethanol) was 300.
For `CC(C)c1ccc(C(=O)CC(=O)c2ccccc2)cc1` [4-isopropyl dibenzoyl methane, 1-p-cumenyl-3-phenylpropane-1,3-dione], the Max ads. (Solvent system Ethanol) was 345.
In the case of `Nc1ccc(C(=O)O)cc1` [PABA, 4-amino benzoic acid], the Max ads. (Solvent system Ethanol) was 283.
`CC1CC(OC(=O)c2ccccc2O)CC(C)(C)C1` (stereo not shown) [Homosalate, 3,3,5-trimethyl cyclohexyl-2-h drox benzoate] showed a Max ads. (Solvent system Ethanol) of 306.
Molecule `O=S(=O)(O)c1ccc2nc(-c3ccccc3)[nH]c2c1` [Novantisol, 2-phenyl-benzimidazole-5-sulphonic acid] has a Max ads. (0,1 N NaOH) of 305.
With `COc1ccc(C(=O)CC(=O)c2ccc(C(C)(C)C)cc2)cc1` [Butyl methoxy dibenzoyl methane, 4-t-butyl-4′-methoxydibenzoyl methane] the Max ads. (Solvent system Ethanol) was 358.
For 3,4,5-trihydroxystilbene [Resveratrol], the εM (at 216 nm) was 19,836, the εM (at 305 nm) was 28,044 and the εM (at 309 nm) was 27,816. For the same molecule, the UV absorption peaks was 216 nm and 305 nm and 309 nm and the UV absorption peaks (listed as resveratrol) was 305 nm and 309 nm.
For “Diethanolamine methoxy hydroxycinnamate [DEA methoxycinnamate]”, the K value was 79.
For `CCOC(=O)c1ccc(N(CC(C)O)CC(C)O)cc1` (stereo not shown) [Ethyl dihydroxypropyl PABA, Ethyl-4-bis(2-hydroxypropyl)amino benzoic acid], the K value was 119, the Max ads. was 311 and the “εM (Molar extinction coefficient)” value was 27,000.
